Results on 23 compounds are retold here after US20230357249A1, “ANDROGEN RECEPTOR PROTEIN DEGRADERS WITH A TRICYCLIC CEREBLON LIGAND” (THE REGENTS OF THE UNIVERSITY OF MICHIGAN, priority 2020, published 2023).

For this assay, the target named is T1, AR protein (Homo sapiens, UniProt P10275).
T1 construct: endogenous in cells; host or cells: VCaP
T1 sequence (P10275 1-920): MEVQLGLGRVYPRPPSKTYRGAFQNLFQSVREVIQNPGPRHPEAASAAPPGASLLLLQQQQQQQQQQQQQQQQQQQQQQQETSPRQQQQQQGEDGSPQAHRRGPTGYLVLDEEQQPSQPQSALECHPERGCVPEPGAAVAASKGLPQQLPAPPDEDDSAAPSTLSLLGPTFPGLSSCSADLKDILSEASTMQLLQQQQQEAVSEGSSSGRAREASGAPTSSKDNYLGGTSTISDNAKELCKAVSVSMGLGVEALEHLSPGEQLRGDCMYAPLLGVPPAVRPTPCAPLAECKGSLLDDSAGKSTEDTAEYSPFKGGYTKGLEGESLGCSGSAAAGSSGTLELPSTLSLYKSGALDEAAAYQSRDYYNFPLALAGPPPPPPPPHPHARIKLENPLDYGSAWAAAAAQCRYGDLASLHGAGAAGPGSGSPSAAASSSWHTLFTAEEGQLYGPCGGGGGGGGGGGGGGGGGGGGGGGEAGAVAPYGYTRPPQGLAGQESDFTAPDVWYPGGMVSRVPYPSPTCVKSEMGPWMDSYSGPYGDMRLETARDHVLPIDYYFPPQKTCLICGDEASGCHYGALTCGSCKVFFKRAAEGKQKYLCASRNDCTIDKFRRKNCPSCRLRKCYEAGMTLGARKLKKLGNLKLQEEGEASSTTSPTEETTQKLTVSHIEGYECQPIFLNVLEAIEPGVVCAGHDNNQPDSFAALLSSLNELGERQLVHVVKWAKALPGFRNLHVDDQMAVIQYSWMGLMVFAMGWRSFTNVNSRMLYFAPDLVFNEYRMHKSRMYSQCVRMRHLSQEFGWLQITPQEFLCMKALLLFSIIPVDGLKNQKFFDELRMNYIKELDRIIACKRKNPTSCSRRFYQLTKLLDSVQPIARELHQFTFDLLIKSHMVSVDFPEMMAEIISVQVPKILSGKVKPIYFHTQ
Description: AR protein degradation in VCaP cells, Western blotting. It counts as cell-based. More on the design: key to AR protein degradation VCap 10 nM / AR protein degradation VCap 100 nM: A: >90% degradation (24 hr treatment); B: >50% degradation but <90% (24 hr treatment); C: >10% degradation but <50% (24 hr treatment); D: No significant degradation (24 hr treatment). As to conditions: 24 hr treatment; for percent AR protein degradation at 0.01 µM / AR protein degradation VCap 10 nM: 10 nM; for percent AR protein degradation at 0.1 µM / AR protein degradation VCap 100 nM: 100 nM. The protocol:
The appropriate cell line, e.g., prostate cancer LNCaP, Vcap, or 22RV1 cell line, was treated with Compounds of the Disclosure as indicated. The treated cells were lysed with RIPA buffer. The AR level in the cell lysates was examined by western blotting and a specific AR antibody (ab194196, Abcam, Cambridge, MA 02139) with concentration of 1:20,000. GAPDH was used as a loading control.
Bands were quantified with ImageJ software. The relative numbers of each band obtained from normalization with its corresponding GAPDH level were compared with Prism 8 software. The DC50 values were produced from Prism 8, and the DC90 values were calculated with an equation=Bottom + (Top-Bottom)/(1+10^((LogEC50-X)*HillSlope) based on DC50 and Hillslope values.
The amount of AR protein degradation in VCap and MDA-MB-453 cells caused by representative Compounds of the Disclosure at the concentrations indicated is presented in Table 4, FIG. 1, and FIG. 2.
Background: Immunoblotting shows a protein as a band on a membrane.

In turn, `CC1(C)[C@H](Oc2ccc(C#N)c(Cl)c2)C(C)(C)[C@H]1N1Cc2cc(C(=O)N3CCC(CN4Cc5cc6c(cc5C4)C(=O)N(C4CCC(=O)NC4=O)C6=O)CC3)ccc2C1=O` (stereo partly shown) [compound 6] gave a percent AR protein degradation at 0.01 µM of 10 to 50% and a percent AR protein degradation at 0.1 µM of 10 to 50%.
As for `N#Cc1ccc(O[C@H]2CC[C@H](Oc3ccc(C(=O)N4CCC(CN5Cc6cc7c(cc6C5)C(=O)N(C5CCC(=O)NC5=O)C7=O)CC4)cc3)CC2)cc1Cl` (stereo partly shown) [compound 12], the “AR protein degradation VCap 10 nM” value is reported as “D” and the “AR protein degradation VCap 100 nM” value was “D”.
The compound `N#Cc1ccc(O[C@H]2CC[C@H](NC(=O)c3ccc(N4CCC(CN5Cc6cc7c(cc6C5)C(=O)N(C5CCC(=O)NC5=O)C7=O)CC4)cc3)CC2)cc1Cl` (stereo partly shown) [compound 8, N-((1r,4r)-4-(3-chloro-4-cyanophenoxy)cyclohexyl)-4-(4-((6-(2,6-dioxopiperidin-3-yl)-5,7-dioxo-3,5,6,7-tetrahydropyrrolo[3,4-f]isoindol-2(1H)-yl)methyl)piperidin-1-yl)benzamide] yielded a percent AR protein degradation at 0.01 µM of over 90% and a percent AR protein degradation at 0.1 µM of over 90%.
Compound `CN(c1ccc(C#N)c(Cl)c1)[C@H]1CC[C@H](NC(=O)c2ccc([C@H]3CC[C@H](CN4Cc5cc6c(cc5C4)C(=O)N(C4CCC(=O)CC4=O)C6=O)CC3)cc2)CC1` (stereo partly shown) [compound 280] came in with a percent AR protein degradation at 0.01 µM of over 90% and a percent AR protein degradation at 0.1 µM of over 90%.
As for `CN(c1ccc(C#N)c(Cl)c1)[C@H]1CC[C@H](NC(=O)c2ccc([C@H]3CC[C@H](CN4Cc5cc6c(cc5C4)C(=O)N(C4CCC(=O)NC4=O)C6=O)CC3)cn2)CC1` (stereo partly shown) [compound 313], the percent AR protein degradation at 0.01 µM was over 90% and the percent AR protein degradation at 0.1 µM is over 90%.
For the compound `CC1(C)C(Nc2ccc(C(=O)N3CCC(N4Cc5cc6c(cc5C4)C(=O)N(C4CCC(=O)NC4=O)C6=O)CC3)cc2)C(C)(C)C1Oc1ccc(C#N)c(Cl)c1` (stereo not shown) [compound 176], the percent AR protein degradation at 0.01 µM is 10 to 50% and the percent AR protein degradation at 0.1 µM is over 90%.
The matching figures for `C[C@H]1C[C@H](NC(=O)c2ccc(N3CCC(N4Cc5cc6c(cc5C4)C(=O)N(C4CCC(=O)NC4=O)C6=O)CC3)cc2)CC[C@H]1Oc1ccc(C#N)c(Cl)c1` (stereo partly shown) [compound 13]: over 90% and over 90%.
Turning to `N#Cc1ccc(O[C@H]2CC[C@H](NC(=O)c3ccc4c(c3)CCN(CC(=O)N3CCc5cc6c(cc5C3)C(=O)N(C3CCC(=O)NC3=O)C6=O)C4)CC2)cc1Cl` (stereo partly shown) [compound 28], the percent AR protein degradation at 0.01 µM fell in the range of 50 to 90% and the percent AR protein degradation at 0.1 µM was in the range of 50 to 90%.
Regarding `CN(c1ccc(C#N)c(Cl)c1)[C@H]1CC[C@H](NC(=O)c2ccc(N3CCN(CC(=O)N4Cc5cc6c(cc5C4)C(=O)N(C4CCC(=O)NC4=O)C6)CC3)cc2)CC1` (stereo partly shown) [compound 327, N-((1r,4r)-4-((3-Chloro-4-Cyanophenyl)(Methyl)Amino)Cyclohexyl)-4-(4-(2-(6-(2,6-Dioxopiperidin-3-Yl)-5-Oxo-3,5,6,7-Tetrahydropyrrolo[3,4-F]Isoindol-2(1h)-Yl)-2-Oxoethyl)Piperazin-1-Yl)Benzamide], the percent AR protein degradation at 0.01 µM was over 90% and the percent AR protein degradation at 0.1 µM is over 90%.
In turn, `C[C@H]1CCN(c2ccc(C(=O)N3CCC(CN4Cc5cc6c(cc5C4)C(=O)N(C4CCC(=O)NC4=O)C6=O)CC3)cc2)CCN1c1ccc(C#N)c(Cl)c1` (stereo partly shown) [compound 120] gave a percent AR protein degradation at 0.01 µM of 50 to 90% and a percent AR protein degradation at 0.1 µM of 50 to 90%.
In the case of `N#Cc1ccc(O[C@H]2CC[C@H](Nc3ccc(C(=O)N4CCC(CN5Cc6cc7c(cc6C5)C(=O)N(C5CCC(=O)NC5=O)C7=O)CC4)cc3)CC2)cc1Cl` (stereo partly shown) [compound 9], the “AR protein degradation VCap 10 nM” value is given as “D” and the percent AR protein degradation at 0.1 µM was in the range of 50 to 90%.
Taken in the same sequence, the figures for `N#Cc1ccc(OC2CC3(CCC(NC(=O)c4ccc(N5CCC(CN6Cc7cc8c(cc7C6)C(=O)N(C6CCC(=O)NC6=O)C8=O)CC5)cc4)CC3)C2)cc1Cl` (stereo not shown) [compound 126] were “D” and 10 to 50%.
Taken in the same sequence, the figures for `N#Cc1ccc(OC2CCC3(CC2)CC(NC(=O)c2ccc(N4CCC(CN5Cc6cc7c(cc6C5)C(=O)N(C5CCC(=O)NC5=O)C7=O)CC4)cc2)C3)cc1Cl` (stereo not shown) [compound 125] were “D” and 10 to 50%.
In turn, `C[C@H]1C[C@H](NC(=O)c2ccc(N3CCC(CN4Cc5cc6c(cc5C4)C(=O)N(C4CCC(=O)NC4=O)C6=O)CC3)cc2)CC[C@H]1Oc1ccc(C#N)c(Cl)c1` (stereo partly shown) [compound 14] registered a percent AR protein degradation at 0.01 µM of over 90% and a percent AR protein degradation at 0.1 µM of over 90%.
In the case of `C[C@H]1CCN(c2ccc(C(=O)N3CCC(N4Cc5cc6c(cc5C4)C(=O)N(C4CCC(=O)NC4=O)C6=O)CC3)cc2)CCN1c1ccc(C#N)c(Cl)c1` (stereo partly shown) [compound 119], the percent AR protein degradation at 0.01 µM lay within 50 to 90% and the percent AR protein degradation at 0.1 µM was 50 to 90%.
`N#Cc1ccc(O[C@H]2CC[C@H](NC(=O)c3ccc4c(c3)CCN(CC(=O)N3CCc5cc6c(cc5C3)C(=O)N(C3CCC(=O)NC3=O)C6=O)CC4)CC2)cc1Cl` (stereo partly shown) [compound 29] had a percent AR protein degradation at 0.01 µM of 50 to 90% and a percent AR protein degradation at 0.1 µM of over 90%.
The matching figures for `CN(c1ccc(C#N)c(Cl)c1)[C@H]1CC[C@H](NC(=O)c2ccc(N3CCC(CN4Cc5cc6c(cc5C4)C(=O)N(C4CCC(=O)NC4=O)C6=O)CC3)nn2)CC1` (stereo partly shown) [compound 325]: over 90% and over 90%.
Take `CN(c1ccc(C#N)c(Cl)c1)[C@H]1CC[C@H](NC(=O)c2ccc(CN3CCC(N4Cc5cc6c(cc5C4)C(=O)N(C4CCC(=O)NC4=O)C6=O)CC3)cc2)CC1` (stereo partly shown) [compound 278]: the percent AR protein degradation at 0.01 µM was over 90% and the percent AR protein degradation at 0.1 µM was over 90%.
On to `N#Cc1ccc(N2CC[C@H]3C[C@H](NC(=O)c4ccc(N5CCC(CN6Cc7cc8c(cc7C6)C(=O)N(C6CCC(=O)NC6=O)C8=O)CC5)cc4)CC[C@H]32)cc1Cl` (stereo partly shown) [compound 26], for which the percent AR protein degradation at 0.01 µM fell in the range of 10 to 50% and the percent AR protein degradation at 0.1 µM fell in the range of 50 to 90%.
Taken in the same sequence, the figures for `N#Cc1ccc(O[C@H]2CC[C@H](NC(=O)c3ccc4c(c3)CCN(C(=O)CN3Cc5cc6c(cc5C3)C(=O)N(C3CCC(=O)NC3=O)C6=O)CC4)CC2)cc1Cl` (stereo partly shown) [compound 25] were over 90% and over 90%.
The matching figures for `C[C@H]1C[C@@H](NC(=O)c2ccc(N3CCC(N4Cc5cc6c(cc5C4)C(=O)N(C4CCC(=O)NC4=O)C6=O)CC3)cc2)CC[C@@H]1Oc1ccc(C#N)c(Cl)c1` (stereo partly shown) [compound 16]: over 90% and over 90%.
As for `N#Cc1ccc(OC2CCN(C(=O)Nc3ccc(C(=O)N4CCC(CN5Cc6cc7c(cc6C5)C(=O)N(C5CCC(=O)NC5=O)C7=O)CC4)cc3)CC2)cc1Cl` (stereo not shown) [compound 132], the “AR protein degradation VCap 10 nM” value is given as “D” and the “AR protein degradation VCap 100 nM” value is “D”.
`N#Cc1ccc(O[C@H]2CC[C@H](N3Cc4cc(C(=O)N5CCC(N6Cc7cc8c(cc7C6)C(=O)N(C6CCC(=O)NC6=O)C8=O)CC5)ccc4C3=O)CC2)cc1Cl` (stereo partly shown) [compound 173] returned a percent AR protein degradation at 0.01 µM of 10 to 50% and a percent AR protein degradation at 0.1 µM of over 90%.
